This is an account of results in patent US4482560A, “Carbostyril derivatives, and antihistaminic agents containing the same” (priority 1979, dated 1984).

Where a name gives a salt, the structure may show the parent alone. Read-outs that look alike come from different tables or passages of the source.

One series is described as follows: Acute toxicity test. The note with it: rat, in vivo; oral, male rats. From the text: Each of the compounds of the present invention was orally administered to male rats to determine the acute toxicity.
Another series concerns Male mice of ddy-strain. In words: Halothane anesthesia increasing activity. Format: in vivo, mouse. Particulars: for Time (minutes) between introduction of anesthesia and waking (righting reflex): oral, 32 mg/kg, 1 hour before 4% Halothane for 3 minutes, male ddy mice, saline control 4.2; for Halothane anesthesia increasing activity / central nervous controlling effect in words: compared with control (physiological saline solution). The protocol: Male mice of ddy-strain having about 20 g body weight were used. One test group consists of 10 mice. An aqueous Gummi Arabicum suspension of test compound (80 mg of a compound to be tested and 1 g of Gummi Arabicum/100 ml of physiological NaCl solution) was administered orally to each mouse at the dosage of 32 mg of test compound/kg body. One hour after the administration, each mouse was placed in gas respiration chamber (13×13×24 cm) and oxygen gas containing 4% of Halothane [2-bromo-2-chloro-1,1,1-trifluoroethane] was blown into the chamber at the velocity of 2 l/min for 3 minutes. A mouse anaesthetized was taken out from the chamber and the time between the introduction of anesthesia to waking was measured by righting reflex as the index. To mice of control group, 1% Gummi Arabicum aqueous physiological solution was orally administered at the dosage of 0.1 ml/kg body. (Reference: M. J. Turnbull and J. W. Watkins: Br. J. Pharmacol., 58, 27-35 (1976))

The next series addresses ileum of a guinea pig (Cavia porcellus, UniProt P31389). Description: cell-based. As to the method:
Pharmacological tests of the present compounds were conducted according to said method as follows:
A male guinea pig having 300 to 500 g body weight is killed by blood letting. An ileum having length of 15 cm being enucleated from the ileocecal region is dipped into Tyrode's solution (which is prepared from 8.0 g of NaCl, 0.2 g of KCl, 0.2 g of CaCl2, 1.0 g of glucose, 1.0 g of NaHCO3, 0.065 g of NaHPO4.2H2 O and 0.2135 g of MgCl2.6H2 O to make 1000 ml in total volume by adding water). Then the tissue of ileum is cut to a length of 2.5 to 3.0 cm and suspended in an organ bath filled with 30 ml of Tyrode's solution. The organ bath is kept a temperature of 36° C. while blowing a mixed gas consisting of 5% of CO2 and 95% of O2 into the bath. 10 Minutes after the blowing, 10^-6 M of histamine is added to the bath to examine the sensitivity of the tissue and a reaction curve (control) with respect to the dosage of histamine is obtained. After the dosage of histamine-reaction curve (control) become constant 10^-6 g/ml of a compound to be tested is added to the bath and further histamine is added 5 minutes later to obtain dosage-reaction curve. Retraction of the ileum is recorded on a pen-recorder through an isotonic transducer (TD-112S manufactured by Nihon Koden).

[1] abbreviates: histamine-induced retraction of guinea pig ileum, test compound 10^-6 g/ml, 36° C., Van Rossam method.
The mark [2] stands for this setting: histamine-induced retraction of guinea pig ileum, test compound 10^-6 g/ml, 36° C., Van Rossam method, read-out: pA2 (converted).

ileum of a guinea pig, sequence (P31389 whole entry): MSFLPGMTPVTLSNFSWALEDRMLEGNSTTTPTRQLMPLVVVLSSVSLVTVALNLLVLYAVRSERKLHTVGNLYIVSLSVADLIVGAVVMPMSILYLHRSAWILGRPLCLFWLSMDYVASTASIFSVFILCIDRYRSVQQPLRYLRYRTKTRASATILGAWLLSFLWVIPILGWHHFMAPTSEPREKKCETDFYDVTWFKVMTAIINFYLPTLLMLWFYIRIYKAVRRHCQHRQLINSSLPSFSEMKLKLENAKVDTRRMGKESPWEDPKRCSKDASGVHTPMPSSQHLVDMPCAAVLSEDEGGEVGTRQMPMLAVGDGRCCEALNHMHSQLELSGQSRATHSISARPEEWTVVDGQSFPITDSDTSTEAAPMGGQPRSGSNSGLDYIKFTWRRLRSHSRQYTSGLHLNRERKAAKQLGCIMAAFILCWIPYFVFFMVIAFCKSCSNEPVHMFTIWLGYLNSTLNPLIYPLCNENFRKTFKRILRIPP

Broadly, the LD50 is the dose expected to kill half of the subjects tested. Low values mean greater toxicity, high ones lower toxicity. By pA2 is commonly meant a measure of antagonist potency on a negative log scale. The low end stands for lower antagonist potency, the high end for higher antagonist potency. Turning to `O=C1CCc2c(cccc2OCCCN2CCC(O)(c3ccccc3)CC2)N1` [Compound 14, 5-{3-[4-(4-Hydroxy-4-phenyl)-1-piperidyl]}-3,4-dihydrocarbostyril], the median lethal dose (LD50) in “Acute toxicity test” was above 1000 mg/kg. Moreover, in the series with Male mice of ddy-strain, the “Time (minutes) between introduction of anesthesia and waking (righting reflex)” value (from here on “Time (minutes) between introduction”) was 5.1 min. Moreover, the pA2 at ileum of a guinea pig (setting [1]) came out at 9.30.
In the series “Acute toxicity test”, `O=C1CCc2c(OCC(O)CN3CCC(Cc4ccccc4)CC3)ccc(Br)c2N1` (stereo not drawn) [Compound 8, 8-Bromo-5-[2-hydroxy-3-(4-benzyl-1-piperidyl)-propoxy]-3,4-dihydrocarbostyril] displayed an LD50 above 1000 mg/kg. Further, the “Time (minutes) between introduction” value in the series with Male mice of ddy-strain worked out at 5.5 min. Besides, the Kb at ileum of a guinea pig (setting [2]) is 4.07 nM.
The matching figures for `CCN1C(=O)CCc2c(OCC(O)CN3CCC(Cc4ccccc4)CC3)cccc21.O=C(O)C(=O)O` (stereo not drawn) [Compound 7, 1-Ethyl-5-[2-hydroxy-3-(4-benzyl-1-piperidyl)-propoxy]-3,4-dihydrocarbostyril monooxalate]: above 1000 mg/kg, 4.2 min and 0.224 nM.
For `O=c1ccc2cccc(OCCCN3CCN(c4ccccc4)CC3)c2[nH]1` [F, 8-(4-Phenyl-1-piperazinylpropoxy)carbostyril, reference compound], in the series on Male mice of ddy-strain, the “Time (minutes) between introduction” value stood at 9.5 min. The compound further displayed a pA2 at ileum of a guinea pig (setting [1]) of 8.58.
For `CC(C(=O)c1cc(Cl)c2c(c1)CCC(=O)N2)N1CCN(c2ccccc2)CC1` (stereo not drawn) [Compound N, 8-Chloro-6-[α-(4-phenyl)-1-piperazinyl)-propionyl]-3,4-dihydrocarbostyril hydrochloride, reference compound], the Kb at ileum of a guinea pig turned out to be 617 nM.
In the case of `CC(C)(C)NCC(O)c1cc(Cl)c2c(c1)CCC(=O)N2` (stereo not drawn) [K, 8-Chloro-6-(1-hydroxy-2-tert-butylamino-ethyl)-3,4-dihydrocarbostyril monohydrochloride, reference compound], the Kb on ileum of a guinea pig (setting [2]) is 47900 nM.
For the compound `Cc1ccccc1N1CCN(CC(O)COc2ccc(NS(C)(=O)=O)c3c2CCC(=O)N3)CC1` (stereo not drawn) [T, 8-Methanesulfonylamino-5-{2-hydroxy-3-[4-(2-methylphenyl)-1-piperazinyl]propoxy}-3,4-dihydro-carbostyril, reference compound], in the series with Male mice of ddy-strain, the “Halothane anesthesia increasing activity / central nervous controlling effect in words” value was “different Halothane anesthesia increasing activity as compared with control”; the “Time (minutes) between introduction” value turned out to be 8.9 min. In addition, on ileum of a guinea pig (setting [2]), the Kb was 15.8 nM.
`Cc1cc(=O)[nH]c2cc(OCCCN3CCN(Cc4ccc(Cl)cc4)CC3)ccc12` [J, reference compound]: in the series on Male mice of ddy-strain, the “Halothane anesthesia increasing activity / central nervous controlling effect in words” value was “different Halothane anesthesia increasing activity as compared with control”; the “Time (minutes) between introduction” value worked out at 8.5 min. On ileum of a guinea pig (setting [1]), the pA2 is recorded as 9.13.
As to “8-(2-Propionyloxy)-5-[2-hydroxy-3-(4-phenyl-1-piperazinyl)propoxy]-3,4-dihydrocarbostyril hydrochloride [Q, reference compound]”, in the series on Male mice of ddy-strain, the “Halothane anesthesia increasing activity / central nervous controlling effect in words” value is given as “different Halothane anesthesia increasing activity as compared with control”; the “Time (minutes) between introduction” value is 8.7 min. This compound also displayed a pA2 at ileum of a guinea pig (setting [1]) of 8.65.
In the series “Acute toxicity test”, `C#CCN1C(=O)CCc2c(OCCCN3CCC(Cc4ccccc4)CC3)cccc21.Cl` [Compound 3, 1-Propargyl-5-[3-(4-benzyl-1-piperidyl)-propoxy]-3,4-dihydrocarbostyril monohydrochloride] yielded an LD50 above 1000 mg/kg. Further, the “Time (minutes) between introduction” value in the series with Male mice of ddy-strain was found to be 5.1 min. The Kb on ileum of a guinea pig (setting [2]) is 0.186 nM.
Consider `COc1ccc(N2CCN(CC(O)COc3ccc(OCc4ccccc4)c4c3CCC(=O)N4)CC2)cc1` (stereo not drawn) [R, Benzyloxy-5-{2-hydroxy-3-[4-(4-methoxy-phenyl)-1-piperazinyl]propoxy}-3,4-dihydrocarbostyril hydrochloride, reference compound], for which the pA2 at ileum of a guinea pig (setting [1]) worked out at 9.57.
On to `CC(=O)Oc1ccc(OCC(O)CN2CCN(c3ccccc3Cl)CC2)c2c1NC(=O)CC2` (stereo not drawn) [P, 8-Acetyoxy-5-{2-hydroxy-3-[4-(2-chloro-phenyl)-1-piperazinyl]propoxy}-3,4-dihydrocarbostyril hydrochloride, reference compound], for which, in the series on Male mice of ddy-strain, the “Halothane anesthesia increasing activity / central nervous controlling effect in words” value is recorded as “different Halothane anesthesia increasing activity as compared with control”; the “Time (minutes) between introduction” value is 8.9 min. Besides, on ileum of a guinea pig (setting [2]), the Kb is 24 nM.
Regarding `COc1ccc(CCNC(C)C(O)c2cc(Cl)c3c(c2)CCC(=O)N3)cc1OC` (stereo not drawn) [O, 8-Chloro-6-[1-hydroxy-2-(β-3,4-dimethoxy-phenethylamino)propyl]-3,4-dihydrocarbostyril hydrochloride, reference compound], on ileum of a guinea pig (setting [2]), the Kb is 1480 nM.
As to `COc1ccc(N2CCN(CC(O)COc3ccc(NC(N)=O)c4c3CCC(=O)N4)CC2)cc1.Cl` (stereo not drawn) [S, 5-{2-Hydroxy-3-[4-(4-methoxyphenyl)-1-piperazinyl]propoxy}-8-ureido-3,4-dihydrocarbostyril hydrochloride, reference compound], in the series on Male mice of ddy-strain, the “Halothane anesthesia increasing activity / central nervous controlling effect in words” value is “different Halothane anesthesia increasing activity as compared with control”; the “Time (minutes) between introduction” value was 9.1 min. Moreover, on ileum of a guinea pig (setting [2]), the Kb is 10.7 nM.
The compound `Cc1cc(=O)[nH]c2cc(OCCCN3CCC(Cc4ccccc4)CC3)ccc12` [Compound 5, 4-Methyl-7-[3-(4-benzyl-1-piperidyl)propoxy]-carbostyril] showed a 50% lethal dose (LD50) in the series “Acute toxicity test” above 1000 mg/kg. For the same compound, the “Time (minutes) between introduction” value in the series with Male mice of ddy-strain worked out at 4.6 min. Further, at ileum of a guinea pig (setting [2]), the Kb is 0.257 nM.
On to `Cc1cc(=O)[nH]c2ccc(OCCCN3CCN(c4ccccc4)CC3)cc12` [H, 4-Methyl-6-(4-phenyl-1-piperazinylpropoxy)-carbostyril, reference compound], for which the Kb on ileum of a guinea pig (setting [2]) was 0.269 nM.
The same measure, in the same setting: the result for `CC(C(O)c1cc(Cl)c2c(c1)CCC(=O)N2)N1CCN(c2ccccc2)CC1` (stereo not drawn) [M, 8-Chloro-6-[1-hydroxy-2-(4-phenyl-1-piperazinyl)propyl]-3,4-dihydrocarbostyril monohydrochloride, reference compound] reads 6460 nM.
Turning to `O=c1ccc2ccc(OCCCN3CCN(c4ccccc4)CC3)cc2[nH]1` [G, 7-(4-Phenyl-1-piperazinylpropoxy)carbostyril, reference compound], the “Time (minutes) between introduction” value in the series on Male mice of ddy-strain was found to be 28.7 min.
`O=C(O)C(=O)O.O=C1CCc2c(OCC(O)CN3CCC(Cc4ccccc4)CC3)cccc2N1Cc1ccccc1` (stereo not drawn) [Compound 12, 1-Benzyl-5-[2-hydroxy-(4-benzyl-1-piperidyl)-propoxy]-3,4-dihydrocarbostyril monooxalate] yielded an LD50 in “Acute toxicity test” above 1000 mg/kg. Further, in the series with Male mice of ddy-strain, the “Time (minutes) between introduction” value stood at 4.2 min. Also, the Kb at ileum of a guinea pig (setting [2]) was 0.02 nM.
With “7-[4-β-Chlorophenyl)-1-piperazinylpropoxy]-carbostyril [reference compound]”, in the series with Male mice of ddy-strain, the “Halothane anesthesia increasing activity / central nervous controlling effect in words” value is on record as “different Halothane anesthesia increasing activity as compared with control”; the “Time (minutes) between introduction” value was 32.7 min.
On to `COc1ccc(CCNC(C)C(=O)c2cc(Cl)c3c(c2)CCC(=O)N3)cc1OC` (stereo not drawn) [L, 8-Chloro-6-[α-(β-3,4-dimethoxyphenethyl-amino)propionyl]-3,4-dihydrocarbostyril monohydrochloride, reference compound], for which the Kb at ileum of a guinea pig (setting [2]) is 4790 nM.
Take `CN1C(=O)CCc2c(OCCCN3CCC(Cc4ccccc4)CC3)cccc21.Cl` [Compound 4, 1-Methyl-5-[3-(4-benzyl-1-piperidyl)propoxy]-3,4-dihydrocarbostyril monohydrochloride]: the LD50 in “Acute toxicity test” is above 1000 mg/kg. The “Time (minutes) between introduction” value with Male mice of ddy-strain was 4.2 min. For the same compound, the Kb on ileum of a guinea pig (setting [2]) is 0.01 nM.
The matching figures for `C=CCN1C(=O)CCc2c(OCC(O)CN3CCC(Cc4ccccc4)CC3)cccc21.O=C(O)C(=O)O` (stereo not drawn) [Compound 6, 1-Allyl-5-[2-hydroxy-(4-benzyl-1-piperidyl)-propoxy]-3,4-dihydrocarbostyril monooxalate]: above 1000 mg/kg, 5.6 min and 0.288 nM.
